{
  "source": "patent US20240294570A1",
  "about": "“ENZYMATICALLY FORMING INTRANUCLEAR PEPTIDE ASSEMBLIES FOR SELECTIVELY KILLING INDUCED PLURIPOTENT STEM CELLS” (BRANDEIS UNIVERSITY, priority 2021, published 2024)",
  "key": {"HEK293 cells": {"test_system": "HEK293 cells", "experiment": "Cytotoxicity against HEK293 cells (MTT assay)", "type": "cell-based", "details": "400 μM, 2 h", "protocol": "(§1) Cell Culture: Human induced pluripotent stem cell line A21 was generated from human normal dermal fibroblasts by using the StemRNA™-NM Reprogramming kit (Stemgent, Cat #00-0076). hiPSCs were routinely cultured and passaged on 6-well plates coated with 0.25 μg/cm^2 iMatrix-511 (Recombinant Laminin-511) (ReproCell) with NutriStem XF/FFTM medium (Biological Industries). HS-5 cell line and HEK293 cell line were purchased from American Type Culture Collection (ATCC, USA). HS-5 cells were cultured in Dulbecco's Modified Eagle Medium (DMEM) supplemented with 10% fetal bovine serum (FBS), 100 U/mL penicillin and 100 μg/mL streptomycin. HEK293 cells were cultured in Minimal Essential Medium (MEM) supplemented with 10% fetal bovine serum (FBS), 100 U/mL penicillin and 100 μg/mL streptomycin. All cells were maintained at 37° C. in a humidified atmosphere of 5% CO2.\n(§2) Cell Viability of Differentiated Cells: Cytotoxicity against HS-5 cells and HEK293 cells was determined by using MTT assay. […] The absorbance of each well at 595 nm was measured by a DTX880 Multimode Detector. The results were calculated as cell viability percentage relative to untreated cells. […]"}, "[1]": {"experiment": "Degradation in HS-5 cell lysate (LC-MS)", "details": "200 μM, 2 h of incubation"}, "[2]": {"experiment": "Critical micelle concentration (CMC) measurement with pyrene probe", "type": "physicochemical", "protocol": "Critical Micelle Concentration ((MC) Measurement: The CMCs were determined using pyrene as the fluorescent probe. Different concentrations of compounds were prepared in pyrene-saturate solutions. The fluorescence spectra of pyrene solutions with different concentration compounds were obtained. The intensity ratio of 378 nm/393 nm (I378/I393) was determined by a Synergy H1 hybrid multi-mode microplate reader. Plot I378/I393 against the concentrations of compounds. The concentration at the turning point is the CMC."}, "[3]": {"experiment": "Enzymatic self-assembly in vitro, nanostructures by TEM", "type": "physicochemical", "protocol": "TEM Sample Preparation: After placing 5 μL samples on 400 mesh copper grids coated with continuous thick carbon film (˜35 nm) which is glowed discharged, we washed the grid with ddH2O and UA (uranyl acetate). The sample loaded grid was stained with the UA. The residual UA was removed by filter paper and then dried in air. TEM images were obtained with Morgagni 268 transmission electron microscope.\nAfter obtaining all the precursors, their behaviors for EISA were evaluated in vitro using transmission electron microscopes (TEM) to examine the nanostructures formed before and after the ALP catalyzed dephosphorylation of precursors 5, 7, and 9. […] The critical micelle concentration (CMC) of 5 is 86.1 μM. […] The CMC of 6 is 8.1 μM. Unlike the case of 5, dephosphorylation of 7 or 9 at 400 μM by ALP (0.5 U/mL) produces nanofibers with the diameters of 6±2 nm or 9±2 nm, whose CMC is 87.4 μM or 25.8 μM, respectively.\nA key requirement for selectively eliminating iPSCs by EISA is that the L-peptide nanoribbons only form on and in iPSCs, which overexpress ALP, but not on and in the differentiated cells that express normal level of ALP. That is, L-peptide nanoribbons should only rapidly form at high level of ALP, but not at normal level of ALP. […] Thus, after assessing the level of ALP expression in iPSCs, it should be possible to optimizing the initial concentration of a peptide and the time of dephosphorylation, to promote EISA that selectively targets iPSCs."}, "HS-5 cells": {"test_system": "HS-5 cells", "experiment": "Cytotoxicity against HS-5 cells (MTT assay)", "type": "cell-based, human", "details": "400 μM, 2 h", "protocol": "as §1, §2"}, "ALP": {"test_system": "ALP", "experiment": "Dephosphorylation rate measurement (LC-MS)", "protocol": "The reaction mixtures were analyzed with LC-MS.\nThus, the conversion of the phosphopentapeptides to their corresponding peptides was examined over time."}, "iPSCs": {"test_system": "iPSCs", "experiment": "Cell viability of iPSCs (trypan blue)", "type": "cell-based, human", "details": "400 μM, 2 h", "protocol": "as §1\n(§3) Cell Viability of iPSC's: iPSCs were plated in 6-well plates and incubated for 24 to 48 hours, then media were replaced with fresh one (2 ml) supplemented with PBS (control) 5 (200 μM, 300 μM, and 400 μM), 7 (400 μM) or 9 (400 μM), and incubated for 2 hours. Media were removed and cells were rinsed with PBS once, fresh normal cultural media were added and incubated for 30 min. All cells were collected and stained with trypan blue, live cells were counted using Cellometer Auto 2000 (Nexcelom Bioscience). Data were obtained by from three independent wells (n=3)."}, "[4]": {"experiment": "Cell viability of iPSCs (trypan blue)", "type": "cell-based, human", "details": "human, human induced pluripotent stem cells (iPSC line A21), 2 hours", "protocol": "as §1, §3"}, "[5]": {"experiment": "Cell viability of iPS-derived HPCs (trypan blue)", "type": "cell-based, human", "details": "human, iPS-derived hematopoietic progenitor cells (HPCs), read-out: viability of the HPC cells", "protocol": "(§4) Differentiation of Human iPSC to iPS-derived Hematopoietic Progenitor Cells (HPC's): iPSCs were differentiated into hematopoietic progenitor cells (HPCs) by using a 3D-bioreactor platform^1. HPCs released from iPSC-spheroids after 9-10 days' differentiation were collected and characterized. Hematopoietic lineage specific marker expression of harvested HPCs were analyzed by flow cytometry. About 97.6% of these HPCs were CD31+CD43+ double positive, but only about 13% are OCT4+, indicative of commitment to hematopoietic lineage. These iPS-derived HPCs were used for 5 (400 μM, 2 hr) cytotoxicity assay.\n(§5) Cell Viability of iPS-derived HPC's: iPS-derived HPCs were plated in 12-well plates and incubated overnight, then media were replaced with fresh one (2 ml) supplemented with PBS (control) 5 (400 μM) incubated for 2 hours. All cells were collected and stained with trypan blue, live cells were counted using Cellometer Auto 2000 (Nexcelom Bioscience). Data were obtained by from three independent wells (n=3)."}, "iPS-derived HPCs": {"test_system": "iPS-derived HPCs", "experiment": "Cell viability of iPS-derived HPCs (trypan blue)", "type": "cell-based, human", "details": "400 μM, 2 h", "protocol": "as §4, §5"}},
  "note": "Non-standard residues stand in square brackets, D forms with d. Residues, ends and D or L forms follow the SMILES beside them. *: point of attachment. pY = N[C@@H](Cc1ccc(OP(=O)(O)O)cc1)C(=O)O; NBD = O=[N+]([O-])c1ccc(*)c2nonc12; βAla = NCCC(=O)O",
  "data": [
    {"molecule": "CC(C)C[C@H](NC(=O)CCNc1ccc([N+](=O)[O-])c2nonc12)C(=O)N[C@@H](CC(C)C)C(=O)N[C@@H](CC(C)C)C(=O)N[C@@H](CC(C)C)C(=O)N[C@@H](Cc1ccc(OP(=O)(O)O)cc1)C(=O)O", "note": "[compound 5, NBD-βA-LLLLpY] ({NBD-βAla}-LLLL[pY]-OH)", "values": [
      {"measurement": "cytotoxicity towards HEK293 cells", "setting": "HEK293 cells", "result": "innocuous"},
      {"measurement": "stability of 5 in HS-5 lysate", "setting": "[1]", "result": "All of 5 disappears"},
      {"measurement": "critical micelle concentration (CMC)", "setting": "[2]", "result": 86.1, "unit": "µM"},
      {"measurement": "diameters of nanoparticles", "setting": "[3]; 200 μM, one-hour treatment by 0.1 U/mL ALP", "result": "404±50", "unit": "nm"},
      {"measurement": "widths of nanoribbons", "setting": "[3]; 400 μM, ALP 0.5 U/mL, 37° C., 24 h", "result": "74±13", "unit": "nm"},
      {"measurement": "diameter of short nanofibers", "setting": "[3]; 400 μM, PBS, before ALP", "result": "9±2", "unit": "nm"},
      {"measurement": "cytotoxicity towards HS-5 cells", "setting": "HS-5 cells", "result": "slight cytotoxicity"},
      {"measurement": "fraction hydrolyzed by ALP", "setting": "ALP; 100 μM, 0.1 U/mL ALP, time point 40 minutes", "result": "about 24%"},
      {"measurement": "final dephosphorylation ratio", "setting": "ALP; 400 μM, 0.1 U/mL ALP", "result": 69.1, "unit": "%"},
      {"measurement": "dephosphorylation ratio", "setting": "ALP; 400 μM, 0.5 U/mL ALP, after 5 hours of incubation", "result": 93.8, "unit": "%"},
      {"measurement": "fraction turned into 6", "setting": "ALP; 0.1 U/mL ALP, after 1 hour of incubation", "result": 32.7, "unit": "%"},
      {"measurement": "fraction turned into 6", "setting": "ALP; 0.1 U/mL ALP, after 2 hours of incubation", "result": 49.6, "unit": "%"},
      {"measurement": "half-life at 100 μM", "setting": "ALP; alkaline phosphatase (ALP) in PBS, half-life of dephosphorylation, 100 μM, 0.5 U/mL ALP", "result": 27.3, "unit": "min"},
      {"measurement": "half-life at 200 μM", "setting": "ALP; alkaline phosphatase (ALP) in PBS, half-life of dephosphorylation, 200 μM, 0.5 U/mL ALP", "result": 21.6, "unit": "min"},
      {"measurement": "half-life at 400 μM", "setting": "ALP; alkaline phosphatase (ALP) in PBS, half-life of dephosphorylation, 400 μM, 0.1 U/mL ALP", "result": 122, "unit": "min"},
      {"measurement": "half-life at 400 μM", "setting": "ALP; alkaline phosphatase (ALP) in PBS, half-life of dephosphorylation, 400 μM, 0.5 U/mL ALP", "result": 30.6, "unit": "min"},
      {"measurement": "cell death of iPSCs (FIG. 8A)", "setting": "iPSCs", "result": 93, "unit": "%"},
      {"measurement": "viability at 2 h, 200 µM", "setting": "[4]; 200 μM", "result": "31.1 ± 3.2", "unit": "%"},
      {"measurement": "viability at 2 h, 300 µM", "setting": "[4]; 300 μM", "result": "18.5 ± 1.5", "unit": "%"},
      {"measurement": "viability at 2 h, 400 µM", "setting": "[4]; 400 μM", "result": "6.96 ± 1.71", "unit": "%"},
      {"measurement": "viability at 2 h, 400 µM", "setting": "[5]", "result": 96.8, "unit": "%"},
      {"measurement": "cell survival of HPCs (FIG. 8B)", "setting": "iPS-derived HPCs", "result": 97, "unit": "%"}
    ]}
  ]
}
